Assay results from BigSolDB 2.1.

Work on CCOC(=O)C1(c2ccccc2)CCN(CCC(C#N)(c2ccccc2)c2ccccc2)CC1 yielded a solubility (mole fraction) (in acetone, 293.15 K) of 0.00426, a solubility (mole fraction) (in acetone, 298.15 K) of 0.00479 and a solubility (mole fraction) (in acetone, 303.15 K) of 0.00559. It also gave a solubility (mole fraction) (in acetone, 308.15 K) of 0.00608, a solubility (mole fraction) (in acetone, 313.15 K) of 0.00664 and a solubility (mole fraction) (in acetone, 318.15 K) of 0.00776. It also gave a solubility (mole fraction) (in acetonitrile, 293.15 K) of 0.00427, a solubility (mole fraction) (in acetonitrile, 298.15 K) of 0.005 and a solubility (mole fraction) (in acetonitrile, 303.15 K) of 0.00601. It also gave a solubility (mole fraction) (in acetonitrile, 308.15 K) of 0.00727, a solubility (mole fraction) (in acetonitrile, 313.15 K) of 0.00919 and a solubility (mole fraction) (in acetonitrile, 318.15 K) of 0.0124. The solubility (mole fraction) (in ethanol, 293.15 K) was 0.00169, the solubility (mole fraction) (in ethanol, 298.15 K) was 0.00198 and the solubility (mole fraction) (in ethanol, 303.15 K) was 0.0023. The solubility (mole fraction) (in ethanol, 308.15 K) was 0.0027, the solubility (mole fraction) (in ethanol, 313.15 K) was 0.00325 and the solubility (mole fraction) (in ethanol, 318.15 K) was 0.00432. The solubility (mole fraction) (in isopropanol, 293.15 K) was 0.000258, the solubility (mole fraction) (in isopropanol, 298.15 K) was 0.000442 and the solubility (mole fraction) (in isopropanol, 303.15 K) was 0.000627. It also gave a solubility (mole fraction) (in isopropanol, 308.15 K) of 0.000859, a solubility (mole fraction) (in isopropanol, 313.15 K) of 0.00108 and a solubility (mole fraction) (in isopropanol, 318.15 K) of 0.00156. The solubility (mole fraction) (in methanol, 293.15 K) was 0.00598, the solubility (mole fraction) (in methanol, 298.15 K) was 0.00791 and the solubility (mole fraction) (in methanol, 303.15 K) was 0.0105. It also gave a solubility (mole fraction) (in methanol, 308.15 K) of 0.0123, a solubility (mole fraction) (in methanol, 313.15 K) of 0.0144 and a solubility (mole fraction) (in methanol, 318.15 K) of 0.0184. It also gave a solubility (mole fraction) (in water, 293.15 K) of 8.6e-06, a solubility (mole fraction) (in water, 298.15 K) of 1.19e-05 and a solubility (mole fraction) (in water, 303.15 K) of 1.45e-05. The solubility (mole fraction) (in water, 308.15 K) was 1.96e-05, the solubility (mole fraction) (in water, 313.15 K) was 2.7e-05 and the solubility (mole fraction) (in water, 318.15 K) was 3.28e-05.
